pIC50: −log10 of the molar value.
How the values were obtained:
full NCI 60 cell panel = assay: NCI 60 Cell One-dose screen; type: cell-based, human; conditions: single high dose 10^−5 M, NCI 60 panel
In short: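 Single dose of 10^−5 M across the full NCI-60 human tumour cell panel. Value is percent growth relative to no-drug control and to time-zero cell number: 0–100 means growth inhibition, 0 means no net growth, below 0 means lethality (−100 = all cells dead).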

CCRF-CEM = assay: NCI 60 five-dose screen CCRF-CEM; type: cell-based; conditions: Homo sapiens, five-dose
SR = assay: NCI 60 five-dose screen SR; type: cell-based, human; conditions: five-dose
HOP-92 = assay: NCI 60 five-dose screen HOP-92; type: cell-based; conditions: Homo sapiens, five-dose
NCI-H322M = assay: NCI 60 five-dose screen NCI-H322M; type: cell-based; conditions: Homo sapiens, five-dose
NCI-H522 = assay: NCI 60 five-dose screen NCI-H522; type: cell-based; conditions: Homo sapiens, five-dose
COLO 205 = assay: NCI 60 five-dose screen COLO 205; type: cell-based; conditions: Homo sapiens, five-dose
HCC-2998 = assay: NCI 60 five-dose screen HCC-2998; type: cell-based; conditions: Homo sapiens, five-dose
HCT-116 = assay: NCI 60 five-dose screen HCT-116; type: cell-based; conditions: Homo sapiens, five-dose
HT29 = assay: NCI 60 five-dose screen HT29; type: cell-based; conditions: Homo sapiens, HT-29, five-dose
KM12 = assay: NCI 60 five-dose screen KM12; type: cell-based; conditions: Homo sapiens, five-dose
SF-295 = assay: NCI 60 five-dose screen SF-295; type: cell-based; conditions: Homo sapiens, five-dose
U251 = assay: NCI 60 five-dose screen U251; type: cell-based; conditions: Homo sapiens, U-251, five-dose
M14 = assay: NCI 60 five-dose screen M14; type: cell-based; conditions: Homo sapiens, five-dose
UACC-257 = assay: NCI 60 five-dose screen UACC-257; type: cell-based; conditions: Homo sapiens, five-dose
UACC-62 = assay: NCI 60 five-dose screen UACC-62; type: cell-based; conditions: Homo sapiens, five-dose
IGROV1 = assay: NCI 60 five-dose screen IGROV1; type: cell-based; conditions: Homo sapiens, IGROV-1, five-dose
OVCAR-8 = assay: NCI 60 five-dose screen OVCAR-8; type: cell-based; conditions: Homo sapiens, five-dose
NCI/ADR-RES = assay: NCI 60 five-dose screen NCI/ADR-RES; type: cell-based; conditions: Homo sapiens, five-dose
A498 = assay: NCI 60 five-dose screen A498; type: cell-based; conditions: Homo sapiens, five-dose
ACHN = assay: NCI 60 five-dose screen ACHN; type: cell-based; conditions: Homo sapiens, five-dose
CAKI-1 = assay: NCI 60 five-dose screen CAKI-1; type: cell-based; conditions: Homo sapiens, five-dose
MCF7 = assay: NCI 60 five-dose screen MCF7; type: cell-based; conditions: Homo sapiens, five-dose
HS 578T = assay: NCI 60 five-dose screen HS 578T; type: cell-based; conditions: Homo sapiens, five-dose
[1] = read-out: LC50 (the source's name)
[2] = read-out: LC50 (the source's name) (converted)

Compound: FC(F)(F)c1cc2c(Cl)ncnc2n1CCN1CCCCC1 [NUCC-0226679]
- growth inhibition in the One-Dose Screen (full NCI 60 cell panel): significant growth inhibition
- GI50 (CCRF-CEM): 11 µM
- pIC50 (CCRF-CEM): 4.13
- IC (TGI) (CCRF-CEM): 100 µM
- CC50 (CCRF-CEM; [1]): ≥ 100 µM
- GI50 (SR; Homo sapiens): 3.31 µM
- pIC50 (SR; Homo sapiens): 5.21
- CC50 (SR; Homo sapiens, read-out: LC50 (the source's name)): ≥ 100 µM
- TGI (SR): 4.58 −log[M]
- GI50 (HOP-92): 19.5 µM
- pIC50 (HOP-92): 4.20
- IC (TGI) (HOP-92): 53.7 µM
- CC50 (HOP-92; [2]): ≥ 100 µM
- GI50 (NCI-H322M): 15.5 µM
- pIC50 (NCI-H322M): 4.44
- IC (TGI) (NCI-H322M): 43.7 µM
- CC50 (NCI-H322M; [2]): ≥ 100 µM
- GI50 (NCI-H522): 1.7 µM
- pIC50 (NCI-H522): 5.49
- IC (TGI) (NCI-H522): 3.47 µM
- GI50 (COLO 205): 52.5 µM
- pIC50 (COLO 205): 4.00
- IC (TGI) (COLO 205): 100 µM
- CC50 (COLO 205; [2]): ≥ 100 µM
- GI50 (HCC-2998): 4.07 µM
- pIC50 (HCC-2998): 5.08
- IC (TGI) (HCC-2998): 14.5 µM
- CC50 (HCC-2998; [2]): 40.7 µM
- GI50 (HCT-116): 4.9 µM
- pIC50 (HCT-116): 5.22
- IC (TGI) (HCT-116): 20.4 µM
- CC50 (HCT-116; [2]): 67.6 µM
- GI50 (HT29): 20.9 µM
- pIC50 (HT29): 4.53
- IC (TGI) (HT29): 81.3 µM
- CC50 (HT29; [2]): ≥ 100 µM
- GI50 (KM12): 29.5 µM
- pIC50 (KM12): 4.38
- IC (TGI) (KM12): 100 µM
- CC50 (KM12; [2]): ≥ 100 µM
- GI50 (SF-295): 22.4 µM
- pIC50 (SF-295): 4.39
- IC (TGI) (SF-295): 87.1 µM
- CC50 (SF-295; [2]): ≥ 100 µM
- GI50 (U251): 14.1 µM
- pIC50 (U251): 4.64
- IC (TGI) (U251): 34.7 µM
- CC50 (U251; [2]): 87.1 µM
- GI50 (M14): 12.9 µM
- pIC50 (M14): 4.65
- IC (TGI) (M14): 33.1 µM
- CC50 (M14; [2]): 87.1 µM
- GI50 (UACC-257): 11.7 µM
- pIC50 (UACC-257): 4.60
- IC (TGI) (UACC-257): 30.2 µM
- CC50 (UACC-257; [2]): 77.6 µM
- GI50 (UACC-62): 12 µM
- pIC50 (UACC-62): 4.65
- IC (TGI) (UACC-62): 30.2 µM
- CC50 (UACC-62; [2]): 75.9 µM
- GI50 (IGROV1): 2.95 µM
- pIC50 (IGROV1): 5.36
- IC (TGI) (IGROV1): 10.2 µM
- CC50 (IGROV1; [2]): 38 µM
- GI50 (OVCAR-8): 12.6 µM
- pIC50 (OVCAR-8): 4.69
- IC (TGI) (OVCAR-8): 33.1 µM
- CC50 (OVCAR-8; [2]): 87.1 µM
- GI50 (NCI/ADR-RES): 24 µM
- pIC50 (NCI/ADR-RES): 4.37
- IC (TGI) (NCI/ADR-RES): 64.6 µM
- CC50 (NCI/ADR-RES; [2]): ≥ 100 µM
- GI50 (A498): 100 µM
- pIC50 (A498): 4.00
- IC (TGI) (A498): 100 µM
- CC50 (A498; [2]): ≥ 100 µM
- GI50 (ACHN): 6.46 µM
- pIC50 (ACHN): 4.77
- IC (TGI) (ACHN): 100 µM
- CC50 (ACHN; [2]): ≥ 100 µM
- GI50 (CAKI-1): 25.1 µM
- pIC50 (CAKI-1): 4.32
- IC (TGI) (CAKI-1): 100 µM
- CC50 (CAKI-1; [2]): ≥ 100 µM
- GI50 (MCF7): 19.5 µM
- pIC50 (MCF7): 4.52
- IC (TGI) (MCF7): 75.9 µM
- CC50 (MCF7; [2]): ≥ 100 µM
- GI50 (HS 578T): 16.6 µM
- pIC50 (HS 578T): 4.00
- IC (TGI) (HS 578T): 60.3 µM
- CC50 (HS 578T; [1]): ≥ 100 µM
